According to paper PMC7658267, “Effects of CYP46A1 Inhibition on Long-Term-Depression in Hippocampal Slices ex vivo and 24S-Hydroxycholesterol Levels in Mice in vivo” (Frontiers in Molecular Neuroscience, 2020):
Where two headings read alike, the source gives them in different places.

Tests used:
Assay in all cases: biochemical
CYP2C19 = CYP2C19 (Homo sapiens, UniProt P33261); design: CYP off-target inhibition panel
Human Eta = target: T1, Human Eta (Homo sapiens, UniProt P25101); design: CEREP off-target binding panel, per cent inhibition at 10 uM, n = 2
T1 construct: gene EDNRA
T1 sequence (P25101 whole entry): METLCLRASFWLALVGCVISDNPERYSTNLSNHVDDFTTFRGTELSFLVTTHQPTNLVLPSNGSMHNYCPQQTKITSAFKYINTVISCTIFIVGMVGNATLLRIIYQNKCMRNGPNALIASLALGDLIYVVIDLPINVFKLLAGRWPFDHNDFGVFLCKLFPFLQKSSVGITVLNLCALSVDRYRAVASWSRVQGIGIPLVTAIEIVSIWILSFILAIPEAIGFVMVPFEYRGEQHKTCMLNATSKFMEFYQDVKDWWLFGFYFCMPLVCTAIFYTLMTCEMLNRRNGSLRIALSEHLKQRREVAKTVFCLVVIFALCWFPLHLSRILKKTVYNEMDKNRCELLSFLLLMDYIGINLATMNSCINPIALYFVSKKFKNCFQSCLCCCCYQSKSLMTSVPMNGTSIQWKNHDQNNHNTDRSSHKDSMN

CYP2C9 = CYP2C9 (Homo sapiens, UniProt P11712); design: CYP off-target inhibition panel
[1] = target: T2, Human norepinephrine transporter (Homo sapiens, UniProt P23975); design: CEREP off-target binding panel, per cent inhibition at 10 uM, n = 2
T2 construct: gene SLC6A2

CYP2B6 = CYP2B6 (Homo sapiens, UniProt P20813); design: CYP off-target inhibition panel
CYP2B6, sequence (P20813 whole entry): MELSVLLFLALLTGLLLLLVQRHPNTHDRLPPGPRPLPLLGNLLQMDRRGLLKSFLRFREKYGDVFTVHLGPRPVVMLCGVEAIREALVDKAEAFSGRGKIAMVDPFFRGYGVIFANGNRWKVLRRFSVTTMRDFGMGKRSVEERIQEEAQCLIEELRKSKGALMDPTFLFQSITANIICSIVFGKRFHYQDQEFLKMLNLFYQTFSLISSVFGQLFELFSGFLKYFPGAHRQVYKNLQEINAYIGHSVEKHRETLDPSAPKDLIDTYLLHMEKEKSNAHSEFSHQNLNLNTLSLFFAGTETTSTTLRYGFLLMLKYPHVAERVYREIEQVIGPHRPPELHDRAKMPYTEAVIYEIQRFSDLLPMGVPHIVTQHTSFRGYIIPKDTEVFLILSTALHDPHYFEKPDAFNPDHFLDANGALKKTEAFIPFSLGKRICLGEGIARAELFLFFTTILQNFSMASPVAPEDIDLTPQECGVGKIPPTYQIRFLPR
Text: These examples have been of interest as tool compounds in commercial development (indicated by patent numbers in Figure 3). […] Initially, [compound left out] was utilized as substrate in this reaction owing to its improved solubility over cholesterol, enabling better run to run reproducibility ([Mast et al., 2003]).

Human B2 = target: T3, Human B2 (Homo sapiens, UniProt P30411); design: CEREP off-target binding panel, per cent inhibition at 10 uM, n = 2
T3 construct: gene BDKRB2

Human H1 = target: T4, Human H1 (Homo sapiens, UniProt P35367); design: CEREP off-target binding panel, per cent inhibition at 10 uM, n = 2
T4 construct: gene HRH1

Human EP4 = target: T5, Human EP4 (Homo sapiens, UniProt P35408); design: CEREP off-target binding panel, per cent inhibition at 10 uM, n = 2
T5 construct: gene PTGER4
T5 sequence (P35408 whole entry): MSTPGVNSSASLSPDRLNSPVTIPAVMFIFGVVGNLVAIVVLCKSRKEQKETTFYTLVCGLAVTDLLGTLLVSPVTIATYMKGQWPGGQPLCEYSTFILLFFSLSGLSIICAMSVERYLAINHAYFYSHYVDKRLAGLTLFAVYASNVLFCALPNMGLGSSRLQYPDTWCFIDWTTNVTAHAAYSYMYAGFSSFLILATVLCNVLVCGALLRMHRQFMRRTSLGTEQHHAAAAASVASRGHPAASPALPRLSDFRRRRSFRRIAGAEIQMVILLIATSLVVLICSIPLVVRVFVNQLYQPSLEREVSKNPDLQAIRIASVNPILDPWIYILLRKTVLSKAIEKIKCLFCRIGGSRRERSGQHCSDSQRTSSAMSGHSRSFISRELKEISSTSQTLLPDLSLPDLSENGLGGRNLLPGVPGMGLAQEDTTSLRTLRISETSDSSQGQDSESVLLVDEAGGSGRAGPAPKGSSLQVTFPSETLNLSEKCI

Human D1 = target: T6, Human D1 (Homo sapiens, UniProt P21728); design: CEREP off-target binding panel, per cent inhibition at 10 uM, n = 2
T6 construct: gene DRD1

Human PR = target: T7, Human PR (Homo sapiens, UniProt P06401); design: CEREP off-target binding panel, per cent inhibition at 10 uM, n = 2
T7 construct: gene PGR

Human Y2 = target: T8, Human Y2 (Homo sapiens, UniProt P49146); design: CEREP off-target binding panel, per cent inhibition at 10 uM, n = 2
T8 construct: gene NPY2R

Human H2 = target: T9, Human H2 (Homo sapiens, UniProt P25021); design: CEREP off-target binding panel, per cent inhibition at 10 uM, n = 2
T9 construct: gene HRH2
T9 sequence (P25021 whole entry): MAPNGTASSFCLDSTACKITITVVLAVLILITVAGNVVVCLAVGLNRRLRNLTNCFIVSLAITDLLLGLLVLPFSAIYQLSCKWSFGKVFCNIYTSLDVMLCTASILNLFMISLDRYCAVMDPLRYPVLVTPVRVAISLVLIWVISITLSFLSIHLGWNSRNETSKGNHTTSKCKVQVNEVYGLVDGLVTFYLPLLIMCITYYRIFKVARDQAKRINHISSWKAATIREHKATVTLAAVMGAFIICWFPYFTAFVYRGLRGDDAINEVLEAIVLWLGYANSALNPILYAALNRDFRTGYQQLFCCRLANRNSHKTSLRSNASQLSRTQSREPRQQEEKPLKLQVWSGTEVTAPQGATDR

Human NK3 = target: T10, Human NK3 (Homo sapiens, UniProt P29371); design: CEREP off-target binding panel, per cent inhibition at 10 uM, n = 2
T10 construct: gene TACR3

Human CB1 = target: T11, Human CB1 (Homo sapiens, UniProt P21554); design: CEREP off-target binding panel, per cent inhibition at 10 uM, n = 2
T11 construct: gene CNR1

Human NTS1 = target: T12, Human NTS1 (Homo sapiens, UniProt P30989); design: CEREP off-target binding panel, per cent inhibition at 10 uM, n = 2
T12 construct: gene NTSR1
T12 sequence (P30989 whole entry): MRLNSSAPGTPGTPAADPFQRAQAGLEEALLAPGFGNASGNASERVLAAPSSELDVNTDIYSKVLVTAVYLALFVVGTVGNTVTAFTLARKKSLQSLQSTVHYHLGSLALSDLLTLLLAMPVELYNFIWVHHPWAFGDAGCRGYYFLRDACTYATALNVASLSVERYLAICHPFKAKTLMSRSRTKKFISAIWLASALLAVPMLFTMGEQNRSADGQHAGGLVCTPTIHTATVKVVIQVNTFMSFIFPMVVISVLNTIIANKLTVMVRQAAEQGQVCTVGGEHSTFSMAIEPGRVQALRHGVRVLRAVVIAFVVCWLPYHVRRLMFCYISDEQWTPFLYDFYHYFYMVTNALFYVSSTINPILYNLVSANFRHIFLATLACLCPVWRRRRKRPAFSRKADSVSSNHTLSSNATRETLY

Human AT1 = target: T13, Human AT1 (Homo sapiens, UniProt P30556); design: CEREP off-target binding panel, per cent inhibition at 10 uM, n = 2
T13 construct: gene AGTR1

Human M1 = target: T14, Human M1 (Homo sapiens, UniProt P11229); design: CEREP off-target binding panel, per cent inhibition at 10 uM, n = 2
T14 construct: gene CHRM1
T14 sequence (P11229 whole entry): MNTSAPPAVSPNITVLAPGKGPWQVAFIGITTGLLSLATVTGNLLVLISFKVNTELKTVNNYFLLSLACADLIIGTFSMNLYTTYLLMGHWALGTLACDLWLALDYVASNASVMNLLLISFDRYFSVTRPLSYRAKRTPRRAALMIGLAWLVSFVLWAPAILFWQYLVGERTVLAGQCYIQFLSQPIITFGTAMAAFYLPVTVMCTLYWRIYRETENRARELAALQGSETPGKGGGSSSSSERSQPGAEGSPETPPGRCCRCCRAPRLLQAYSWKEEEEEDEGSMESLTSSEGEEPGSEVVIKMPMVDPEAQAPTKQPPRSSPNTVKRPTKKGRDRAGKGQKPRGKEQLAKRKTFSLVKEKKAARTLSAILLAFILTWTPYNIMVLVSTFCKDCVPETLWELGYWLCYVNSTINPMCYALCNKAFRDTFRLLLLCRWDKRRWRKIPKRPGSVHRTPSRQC

Human 5-HT1B = target: T15, Human 5-HT1B (Homo sapiens, UniProt P28222); design: CEREP off-target binding panel, per cent inhibition at 10 uM, n = 2
T15 construct: gene HTR1B
T15 sequence (P28222 whole entry): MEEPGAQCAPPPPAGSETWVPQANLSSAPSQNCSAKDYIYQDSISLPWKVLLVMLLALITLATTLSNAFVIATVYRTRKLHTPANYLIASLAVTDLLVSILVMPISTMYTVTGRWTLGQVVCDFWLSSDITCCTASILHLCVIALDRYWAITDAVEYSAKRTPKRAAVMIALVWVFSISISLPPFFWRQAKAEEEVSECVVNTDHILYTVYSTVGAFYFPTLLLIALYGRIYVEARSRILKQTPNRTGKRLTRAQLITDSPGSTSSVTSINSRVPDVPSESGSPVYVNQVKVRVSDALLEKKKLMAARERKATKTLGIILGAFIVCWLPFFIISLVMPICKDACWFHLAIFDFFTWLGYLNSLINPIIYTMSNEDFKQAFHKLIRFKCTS

Human 5-HT6 = target: T16, Human 5-HT6 (Homo sapiens, UniProt P50406); design: CEREP off-target binding panel, per cent inhibition at 10 uM, n = 2
T16 construct: gene HTR6
T16 sequence (P50406 whole entry): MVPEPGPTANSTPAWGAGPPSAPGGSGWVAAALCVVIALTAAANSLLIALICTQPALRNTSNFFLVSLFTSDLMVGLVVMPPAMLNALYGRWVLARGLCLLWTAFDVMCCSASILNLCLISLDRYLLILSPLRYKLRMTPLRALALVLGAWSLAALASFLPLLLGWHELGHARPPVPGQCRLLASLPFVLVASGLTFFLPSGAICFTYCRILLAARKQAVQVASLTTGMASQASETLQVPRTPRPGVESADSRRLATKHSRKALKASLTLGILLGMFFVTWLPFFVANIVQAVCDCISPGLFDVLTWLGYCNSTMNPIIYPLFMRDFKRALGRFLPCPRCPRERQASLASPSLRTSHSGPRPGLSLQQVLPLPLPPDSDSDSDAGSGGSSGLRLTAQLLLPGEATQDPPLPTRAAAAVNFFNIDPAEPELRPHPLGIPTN

Human A1 = target: T17, Human A1 (Homo sapiens, UniProt P30542); design: CEREP off-target binding panel, per cent inhibition at 10 uM, n = 2
T17 construct: gene ADORA1
T17 sequence (P30542 whole entry): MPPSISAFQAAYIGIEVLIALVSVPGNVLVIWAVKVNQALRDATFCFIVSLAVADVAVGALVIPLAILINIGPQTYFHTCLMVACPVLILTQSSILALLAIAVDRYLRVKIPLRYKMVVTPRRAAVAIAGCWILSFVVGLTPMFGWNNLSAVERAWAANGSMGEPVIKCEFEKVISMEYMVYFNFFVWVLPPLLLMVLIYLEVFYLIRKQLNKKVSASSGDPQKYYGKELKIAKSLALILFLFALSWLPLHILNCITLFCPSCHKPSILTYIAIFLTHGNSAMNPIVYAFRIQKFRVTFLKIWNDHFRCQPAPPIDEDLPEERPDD

Human 5-HT3 = target: T18, Human 5-HT3 (Homo sapiens, UniProt P46098); design: CEREP off-target binding panel, per cent inhibition at 10 uM, n = 2
T18 construct: gene HTR3A

CYP2C8 = CYP2C8 (Homo sapiens, UniProt P10632); design: CYP off-target inhibition panel
CCK1 = target: T19, CCK1 (Homo sapiens, UniProt P32238); design: CEREP radioligand binding panel, percent inhibition of specific binding
T19 construct: gene CCKAR
T19 sequence (P32238 whole entry): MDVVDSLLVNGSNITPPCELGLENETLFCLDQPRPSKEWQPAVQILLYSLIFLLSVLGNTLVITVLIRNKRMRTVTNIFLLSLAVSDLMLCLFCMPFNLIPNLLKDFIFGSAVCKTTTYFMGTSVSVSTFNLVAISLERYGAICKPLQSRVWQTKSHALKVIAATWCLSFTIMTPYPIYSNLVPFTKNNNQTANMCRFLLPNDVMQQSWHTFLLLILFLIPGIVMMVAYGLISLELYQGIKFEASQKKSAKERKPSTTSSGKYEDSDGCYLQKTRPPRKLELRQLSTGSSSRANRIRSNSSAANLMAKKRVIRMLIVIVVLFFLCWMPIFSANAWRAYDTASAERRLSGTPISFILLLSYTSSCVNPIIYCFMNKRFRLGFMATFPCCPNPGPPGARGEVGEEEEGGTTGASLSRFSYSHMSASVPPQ

GAL2 = target: T20, GAL2 (Homo sapiens, UniProt O43603); design: CEREP radioligand binding panel, percent inhibition of specific binding
T20 construct: gene GALR2

MT1 = target: T21, MT1 (Homo sapiens, UniProt P48039); design: CEREP radioligand binding panel, percent inhibition of specific binding
T21 construct: gene MTNR1A

CYP1A2 = CYP1A2 (Homo sapiens, UniProt P05177); design: CYP off-target inhibition panel

CYP2C19, sequence (P33261 whole entry): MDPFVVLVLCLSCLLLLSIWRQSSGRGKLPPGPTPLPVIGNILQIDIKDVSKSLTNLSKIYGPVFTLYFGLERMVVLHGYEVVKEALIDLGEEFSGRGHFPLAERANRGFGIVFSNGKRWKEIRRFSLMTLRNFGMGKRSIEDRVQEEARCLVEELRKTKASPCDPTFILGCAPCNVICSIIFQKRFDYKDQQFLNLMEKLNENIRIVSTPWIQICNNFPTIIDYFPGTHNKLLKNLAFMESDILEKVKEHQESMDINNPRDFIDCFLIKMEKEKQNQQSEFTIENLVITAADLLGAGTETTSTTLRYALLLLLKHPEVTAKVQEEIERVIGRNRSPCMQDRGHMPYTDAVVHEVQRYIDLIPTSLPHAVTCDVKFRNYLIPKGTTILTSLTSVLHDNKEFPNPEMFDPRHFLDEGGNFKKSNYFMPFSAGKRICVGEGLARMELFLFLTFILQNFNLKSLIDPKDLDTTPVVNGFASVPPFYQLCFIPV

Row | Structure (SMILES) | inhibition at 10 µM (Human Eta) [%] | inhibition at 10 µM [1] [%] | inhibition at 10 µM (Human B2) [%] | inhibition at 10 µM (Human H1) [%] | inhibition at 10 µM (Human EP4) [%] | inhibition at 10 µM (Human D1) [%] | inhibition at 10 µM (Human PR) [%] | inhibition at 10 µM (Human Y2) [%] | inhibition at 10 µM (Human H2) [%] | inhibition at 10 µM (Human NK3) [%] | inhibition at 10 µM (Human CB1) [%] | inhibition at 10 µM (Human NTS1) [%] | inhibition at 10 µM (Human AT1) [%] | inhibition at 10 µM (Human M1) [%] | inhibition at 10 µM (Human 5-HT1B) [%] | inhibition at 10 µM (Human 5-HT6) [%] | inhibition at 10 µM (Human A1) [%] | inhibition at 10 µM (Human 5-HT3) [%] | inhibition at 10 µM (CCK1) [%] | inhibition at 10 µM (GAL2) [%] | further results
1 | O=C(c1cccnc1-c1ccncn1)N1CCC(O)(Cc2ccc(F)cc2)CC1 [compound 2, (4-(4-fluorobenzyl)-4-hydroxypiperidin-1-yl)(2-(pyrimidin-4-yl)pyridin-3-yl)methanone] | -35.5 | -3.6 | 8.4 | -13.3 | 1.8 | -5.3 | -4.7 | 6.8 | -5.4 | 1.1 | -9.2 | -12.2 | -3.2 | -8.6 | -13.3 | 0.9 | 12.2 | 0.8 | -4.7 | 0 | IC50 (CYP2C19; read-out: compound 2): > 50 µM; IC50 (CYP2C9; read-out: compound 2): > 50 µM; IC50 (CYP2B6; read-out: compound 2): > 50 µM; IC50 (CYP2C8; read-out: compound 2): > 50 µM; inhibition at 10 µM (MT1): 8.3%; IC50 (CYP1A2; read-out: compound 2): > 50 µM
2 | O=C(c1cnc2c(-c3cnco3)cc(C(F)(F)F)cn12)N1C2CCC1COC2 [compound 1, (3-oxa-8-azabicyclo[3.2.1]octan-8-yl)(8-(oxazol-5-yl)-6-(trifluoromethyl)imidazo[1,2-a]pyridin-3-yl)methanone] | -25.8 | -14.5 | 6.9 | -12.9 | -22.4 | 2.4 | 2 | -3.7 | -6.2 | 4.1 | -34.7 | -9.7 | -3.7 | 3.3 | -8.4 | -0.7 | 32 | 11 | 7.1 | -7.2 | IC50 (CYP2C19): > 50 µM; IC50 (CYP2C9): > 50 µM; IC50 (CYP2B6): > 50 µM; IC50 (CYP2C8): > 50 µM; inhibition at 10 µM (MT1): 1.7%; IC50 (CYP1A2): 6.29 µM
